ChEMBL document CHEMBL1152363 (Bioorg Med Chem Lett, 2009)

Test system: not listed separately
Test: Metabolic stability in rat liver microsomes assessed as turnover after 60 mins
Format: ADME, Microsome
Conditions: read-out: Stability

Work on `N[C@@H](CC(=O)N1CCC[C@H]1CNC(=O)c1ccccc1)Cc1ccccc1F` yielded a metabolised at 1 h of 76%.

Biological target: Dipeptidyl peptidase 4 (Homo sapiens, UniProt P27487)
Test: Inhibition of DPP4 by continuous fluorimetric assay
Conditions: not given

Dipeptidyl peptidase 4, sequence (P27487 whole entry): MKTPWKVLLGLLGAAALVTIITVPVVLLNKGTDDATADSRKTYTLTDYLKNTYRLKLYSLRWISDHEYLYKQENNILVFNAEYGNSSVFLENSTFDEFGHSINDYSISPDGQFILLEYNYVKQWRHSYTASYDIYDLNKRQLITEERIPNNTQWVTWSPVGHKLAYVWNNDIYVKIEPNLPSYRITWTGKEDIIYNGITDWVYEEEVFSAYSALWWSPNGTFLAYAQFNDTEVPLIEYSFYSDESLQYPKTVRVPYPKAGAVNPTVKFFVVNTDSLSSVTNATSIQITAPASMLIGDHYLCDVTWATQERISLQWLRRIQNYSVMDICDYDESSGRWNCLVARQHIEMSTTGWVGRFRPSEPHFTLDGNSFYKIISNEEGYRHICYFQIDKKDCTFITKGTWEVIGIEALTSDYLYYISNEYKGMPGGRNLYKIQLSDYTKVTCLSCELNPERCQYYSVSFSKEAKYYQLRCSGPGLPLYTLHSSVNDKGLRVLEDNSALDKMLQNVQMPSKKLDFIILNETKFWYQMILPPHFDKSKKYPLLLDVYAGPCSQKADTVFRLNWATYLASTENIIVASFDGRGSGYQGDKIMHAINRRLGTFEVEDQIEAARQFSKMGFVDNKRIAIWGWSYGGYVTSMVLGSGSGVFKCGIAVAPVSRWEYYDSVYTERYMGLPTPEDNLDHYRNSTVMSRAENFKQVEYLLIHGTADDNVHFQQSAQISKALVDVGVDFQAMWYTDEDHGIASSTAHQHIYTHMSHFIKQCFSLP

`N[C@@H](CC(=O)N1CCC[C@H]1CNS(=O)(=O)c1ccc(Cl)cc1)Cc1ccccc1F` and `N[C@@H](CC(=O)N1CCC[C@H]1CNS(=O)(=O)c1ccc(F)cc1)Cc1ccccc1F` are within 1.5-fold of each other in IC50: 20 nM for the first, 27 nM for the second.

Compared with `N[C@@H](CC(=O)N1CCC[C@H]1CNC(=O)c1ccccc1F)Cc1ccccc1F`, `N[C@@H](CC(=O)N1CCC[C@H]1CNC(=O)c1cccc(F)c1)Cc1ccccc1F` is 1.9-fold higher in IC50: 49 nM for the first, 92 nM for the second. The first is the more potent here.

`N[C@@H](CC(=O)N1CCC[C@H]1CNC(=O)c1ccc(F)cc1)Cc1ccccc1F` and `CS(=O)(=O)c1ccc(C(=O)NC[C@@H]2CCCN2C(=O)C[C@H](N)Cc2ccccc2F)cc1` are within 1.5-fold of each other in IC50: 92 nM for the first, 77 nM for the second.

Compared with `N[C@@H](CC(=O)N1CCC[C@H]1CNC(=O)c1ccccn1)Cc1ccccc1F`, `N[C@@H](CC(=O)N1CCC[C@H]1CNC(=O)c1cccnc1)Cc1ccccc1F` is 1.9-fold higher in IC50: 47 nM for the first, 87 nM for the second.

Compared with `N[C@@H](CC(=O)N1CCC[C@H]1CNS(=O)(=O)c1cc(Cl)ccc1Cl)Cc1ccccc1F`, `N[C@@H](CC(=O)N1CCC[C@H]1CNS(=O)(=O)c1cccc(F)c1)Cc1ccccc1F` is 3.9-fold higher in IC50: 24 nM for the first, 94 nM for the second.

Going from `N[C@@H](CC(=O)N1CCC[C@H]1CNC(=O)c1ccccc1)Cc1cccc(Cl)c1` to `N[C@@H](CC(=O)N1CCC[C@H]1CNC(=O)c1ccncc1)Cc1ccccc1F`, the IC50 rises from 27 nM to 66 nM (2.4-fold).

Work on `CS(=O)(=O)c1ccccc1C(=O)NC[C@@H]1CCCN1C(=O)C[C@H](N)Cc1ccccc1F` yielded an IC50 of 27 nM.
